Laboratory results published in publication PMC7007966 (Journal of medicinal chemistry, 2019).
“Also recorded” adds a separate entry of the source.

Experiments:
[1] = molecular target: T1, rat DOR (C6-DOR membranes) (Rattus norvegicus, UniProt P33533); conditions: [35S]-GTPγS stimulation relative to DPDPE; cited from earlier work
[2] = molecular target: T2, rat MOR (C6-MOR membranes) (Rattus norvegicus, UniProt P33535); assay: Radioligand competition binding, [3H]-diprenorphine displacement; conditions: ratio of binding affinities; 1A-D, 2B, 2D previously reported compounds
[3] = molecular target: T2, rat MOR (C6-MOR membranes); assay: [35S]-GTPγS binding assay; type: biochemical; conditions: [35S]-GTPγS stimulation relative to DAMGO
[4] = molecular target: T1, rat DOR (C6-DOR membranes); assay: [35S]-GTPγS binding assay; type: biochemical; conditions: for DOR efficacy (in words): [35S]-GTPγS stimulation relative to DPDPE at 10 μM
[5] = molecular target: T3, human KOR (CHO-KOR membranes) (Homo sapiens, UniProt P41145); assay: Radioligand competition binding, [3H]-diprenorphine displacement; conditions: competitive displacement of [3H]-diprenorphine, membrane preparations
[6] = molecular target: T3, human KOR (CHO-KOR membranes); assay: [35S]-GTPγS binding assay; type: biochemical; conditions: [35S]-GTPγS stimulation relative to U69,593 at 10 μM

Structure (SMILES) | MOR efficacy (in words) [3] | DOR efficacy (in words) [4] | other results
Cc1cc(O)cc(C)c1C[C@H](N)C(=O)N[C@@H]1CCNc2ccc(Cc3ccccc3)cc21.O=C(O)C(F)(F)F [Compound 1A] | – | – | DOR efficacy (in words), previously reported compounds [1]: low DOR agonist activity
Cc1cc(O)cc(C)c1C[C@H](N)C(=O)N[C@@H]1CCNc2ccc(Cc3ccc4ccccc4c3)cc21.O=C(O)C(F)(F)F [Compound 1B] | – | – | selectivity for MOR over DOR (DOR Ki/MOR Ki) [2]: 100 fold
Cc1cc(O)cc(C)c1C[C@H](N)C(=O)N[C@@H]1CCNc2ccc(Cc3cc4ccccc4o3)cc21.O=C(O)C(F)(F)F [Compound 1F] | MOR agonists | DOR antagonists | –
CC(=O)N1CC[C@@H](NC(=O)[C@@H](N)Cc2c(C)cc(O)cc2C)c2cc(Cc3ccccc3)ccc21.O=C(O)C(F)(F)F [Compound 2A] | – | – | DOR efficacy (in words), previously reported compounds [1]: significant efficacy at DOR
CC(=O)N1CC[C@@H](NC(=O)[C@@H](N)Cc2c(C)cc(O)cc2C)c2cc(Cc3ccc4ccccc4c3)ccc21.O=C(O)C(F)(F)F [Compound 2B] | – | – | DOR efficacy (in words), previously reported compounds [1]: DOR antagonist profile
CC(=O)N1CC[C@@H](NC(=O)[C@@H](N)Cc2c(C)cc(O)cc2C)c2cc(Cc3cnc4ccccc4c3)ccc21.O=C(O)C(F)(F)F [Compound 2C] | – | significant efficacy at DOR | –
CC(=O)N1CC[C@@H](NC(=O)[C@@H](N)Cc2c(C)cc(O)cc2C)c2cc(CN3CCc4ccccc4C3)ccc21.O=C(O)C(F)(F)F [Compound 2D] | – | – | KOR affinity (in words) [5]: relatively high KOR affinity; KOR efficacy (in words) [6]: relatively high KOR affinity and efficacy
CC(=O)N1CC[C@@H](NC(=O)[C@@H](N)Cc2c(C)cc(O)cc2C)c2cc(Cc3cc4ccccc4o3)ccc21.O=C(O)C(F)(F)F [Compound 2F] | MOR agonists | significant efficacy at DOR; also recorded: DOR partial agonists | –
Cc1cc(O)cc(C)c1C[C@H](N)C(=O)N[C@@H]1CCN(C(=O)C2CC2)c2ccc(Cc3ccccc3)cc21.O=C(O)C(F)(F)F [Compound 3A] | – | significant efficacy at DOR | –
Cc1cc(O)cc(C)c1C[C@H](N)C(=O)N[C@@H]1CCN(C(=O)C2CC2)c2ccc(Cc3ccc4ccccc4c3)cc21.O=C(O)C(F)(F)F [Compound 3B] | – | significant efficacy at DOR | –
Cc1cc(O)cc(C)c1C[C@H](N)C(=O)N[C@@H]1CCN(C(=O)C2CC2)c2ccc(Cc3cnc4ccccc4c3)cc21.O=C(O)C(F)(F)F [Compound 3C] | – | significant efficacy at DOR | DOR agonist potency (in words) ([4]; [35S]-GTPγS stimulation): subnanomolar
Cc1cc(O)cc(C)c1C[C@H](N)C(=O)N[C@@H]1CCN(C(=O)C2CC2)c2ccc(Cc3cc4ccccc4o3)cc21.O=C(O)C(F)(F)F [Compound 3F] | MOR agonists | significant efficacy at DOR; also recorded: DOR partial agonists | –
Cc1cc(O)cc(C)c1C[C@H](N)C(=O)N[C@@H]1CCN(S(C)(=O)=O)c2ccc(Cc3ccccc3)cc21.O=C(O)C(F)(F)F [Compound 4A] | – | partial DOR agonism | –
Cc1cc(O)cc(C)c1C[C@H](N)C(=O)N[C@@H]1CCN(S(C)(=O)=O)c2ccc(CN3CCc4ccccc4C3)cc21.O=C(O)C(F)(F)F [Compound 4D] | – | – | KOR affinity (in words) [5]: relatively high KOR affinity; KOR efficacy (in words) [6]: relatively high KOR affinity and efficacy
Cc1cc(O)cc(C)c1C[C@H](N)C(=O)N[C@@H]1CCN(S(C)(=O)=O)c2ccc(Cc3cc4ccccc4o3)cc21.O=C(O)C(F)(F)F [Compound 4F] | MOR agonists | DOR antagonists | –
Cc1cc(O)cc(C)c1C[C@H](N)C(=O)N[C@@H]1CCN(C(=O)c2ccccc2)c2ccc(Cc3ccc4ccccc4c3)cc21.O=C(O)C(F)(F)F [Compound 5B] | partial MOR efficacy | – | –
Cc1cc(O)cc(C)c1C[C@H](N)C(=O)N[C@@H]1CCN(C(=O)c2ccccc2)c2ccc(Cc3cnc4ccccc4c3)cc21.O=C(O)C(F)(F)F [Compound 5C] | partial MOR efficacy | – | –
Cc1cc(O)cc(C)c1C[C@H](N)C(=O)N[C@@H]1CCN(C(=O)c2ccccc2)c2ccc(Cc3ccc4c(c3)OCCO4)cc21.O=C(O)C(F)(F)F [Compound 5E] | no significant MOR efficacy | – | –
Cc1cc(O)cc(C)c1C[C@H](N)C(=O)N[C@@H]1CCN(C(=O)c2ccccc2)c2ccc(Cc3cc4ccccc4o3)cc21.O=C(O)C(F)(F)F [Compound 5F] | MOR partial agonist | DOR antagonist | –
